Literature values as cited in patent US20160199460A1, “COMPOSITIONS FOR REDUCING THE DELETERIOUS EFFECTS OF STRESS AND AGING” (HydroPep, LLC, priority 2010, published 2016).

Test system: aging individuals (>50 years of age)
Settings: oral D-ribose; aging individuals (>50 years of age) with tiredness for at least one month

Structure (SMILES): O=C[C@H](O)[C@H](O)[C@H](O)CO [D-ribose]
- Physical fatigue and mental outlook: lessening physical fatigue
